From patent US6482851B1, “Synthesis of dysidiolide and uses thereof” (Sloan-Kettering Institute for Cancer Research, priority 1998, dated 2002) come the findings set out here.

Series [1] deals with p21, p27, cyclin D1 and cyclin E. The series is described as follows: steady-state levels of other cell cycle regulators in MCF7 cells. It counts as cell-based, human. To be noted: 50 μM, 24 hr. On the procedure:
(§1) (A) Effect of 50 μM dysidiolide on the steady-state levels of Cdc25 A and C, and of other cell cycle regulators in MCF7 cells after a 24 hr treatment.

In a further series the test system is Cdk2. The series is described as follows: Cdk2 kinase activity on immunoprecipitates from treated MCF7 cells. It counts as cell-based, human. As for the experimental part:
(§2) Effect of dysidiolide on the activity of Cdk2 and on the steady-state levels of Cdc25A and Cdc25C. MCF7 cells were treated for 2 or 4 hr with 0, 2 or 10 μM dysidiolide. A) The kinase activity of Cdk2 was assayed on immunoprecipitates using histone H1 as exogenous substrate. B) The steady-state levels of Cdc25 A and C were analyzed in total cell lysates with specific antibodies (Santa Cruz Biotechnology's sc097 and sc327 antibodies were used for detection of Cdc25 A and C, respectively).
(§3) Effect of a 24 hr treatment with 50 μM dysidiolide on the kinase activity of Cdk4, Cdk2 and Cdc2. Cdk were immunoprecipitated from MCF7 cell lysates obtained from cultures treated or not with dysidiolide for 24 hr. Histone H1 was used as substrate for Cdk2 and Cdc2, whereas GST-Rb was the substrate for Cdk4.
To further characterize the effects of dysidiolide on cell cycle control, experiments were conducted at the molecular level. As Cdc25s (A, B and C) are positive regulators of cyclin-dependent kinases (Cdk) (reviewed in Draetta and Eckstein, BBA 1332: M53-M63, 1997) inhibition of Cdc25 is expected to result in inhibition of Cdk activity. MCF7 cells were treated with 2 or 10 μM dysidiolide or with DMSO (controls) for 2 or 4 hr. Cell extracts were used to measure the steady-state levels of Cdc25 A and C, and Cdk activity. […]

A further series has as its system TSU-Pr1 cells. Kind of series: BrdU pulse-label FACS of TSU-Pr1 cells. The note with it: 3.33 μM, 24 hours. The class given is cell-based, human. On the procedure: TSU-Pr1 cells were treated for 24 hours with either DMSO or 3.33 μM dysidiolide. Cells were pulse-labeled for 30 min with bromodeoxyuridine (BrdU) and analyzed by FACS. The R@ window contains BRDU-positive, S-phase cells. Consistent with the proposed inhibitory effect of dysidiolide on the positive cell cycle regulator Cdc25. the drug inhibited the activity of cyclin-dependent kinases (Cdk). Cdk4, 6 and 2 were immunoprecipitated from DMSO- or drug-treated TSU-Pr1 cell cultures. Activity was examined in vitro kinase assays. The activity of the three Cdks was inhibited in drug-treated cells, as early as 3 hours in drug.

In a further series the test system is Cdc25 C. The series is described as follows: steady-state levels of Cdc25 C in MCF7 cell lysates. The class given is cell-based, human. On the procedure:
as §2, §1
To further characterize the effects of dysidiolide on cell cycle control, experiments were conducted at the molecular level. As Cdc25s (A, B and C) are positive regulators of cyclin-dependent kinases (Cdk) (reviewed in Draetta and Eckstein, BBA 1332: M53-M63, 1997) inhibition of Cdc25 is expected to result in inhibition of Cdk activity. MCF7 cells were treated with 2 or 10 μM dysidiolide or with DMSO (controls) for 2 or 4 hr. Cell extracts were used to measure the steady-state levels of Cdc25 A and C, and Cdk activity. […] However, a decrease in the levels of Cdc25 C (but not on A) was clearly noticeable (FIG. 9B). In the next experiment MCF7 cells were treated for 24 hr with 50 μM dysidiolide or with DMSO (control) for 24 hr. […]

In series [2] the test system is PC3, DU145 and MCF7 cells. The series is described as follows: cell cycle distribution by DNA content histograms (FACS). It counts as cell-based, human. On the procedure:
Cells with 2n to 4n DNA content were distributed on a DNA histogram and estimations for the percentages of cells in G1(2n), S(2n<X<4N) and G2/M (4n) were calculated using Becton-Dickinson FACS analysis software.
(§4) A 20 mM stock solution of dysidiolide was prepared in dimethylsulfoxide (DMSO) and a pilot experiment was carried out to measure the effects of the drug on the viability (Trypan blue exclusion) and flow cytometric parameters of four human cancer cell lines: the prostate lines TSU-Pr1, PC3 and DU145, and the breast line, MCF7. Cultures were treated with 0, 2, 10 and 50 μM dysidiolide for 24 hr. Dysidiolide was cytotoxic to the four lines as evidenced by the loss of Trypan blue exclusion capability and by the appearance of sub-G1 fraction on flow cytometric (FACS) analysis (FIGS. 3 and 4A-D). […] (At 50 μM dysidiolide, the level of cell death was too high in TSU-Pr1 cells to fit a valid histogram (FIG. 5A)). These cell cycle changes are consistent with arrest prior to completion of the replicative (S) phase, or with cell death occurring preferentially in cells with a 4n DNA content (G2/M population).

For series [3], the system named is TSU-Pr1, PC3, DU145 and MCF7 human cancer cell lines. Kind of series: viability (Trypan blue exclusion) and FACS sub-G1 of four human cancer cell lines. The class given is cell-based. As for the experimental part:
Effect of dysidiolide on the viability of the human cancer cell lines (A) TSU-Pr1, (B) MCF7, (C) PC3, and (D) DU145. Cultures were untreated or treated with 2, 10 or 50 μM dysidiolide for 24 hr. All cultures received a final DMSO concentration of 0.25%. Cells were harvested by trypsinization and viability was determined by Trypan blue exclusion.
FACS analysis of (A) TSU-Pr1, (B) PC3, (C) DU145, and (D) MCF7, untreated or treated with 2, 10 or 50 μM dysidiolide for 24 hr. All cultures received a final DMSO concentration of 0.25%.
Cells containing fragmented DNA content were detected as the M1 (subG1) region on DNA content plots.
as §4, with “These cell cycle changes are consistent with arrest prior to completion of the replicative (S) phase, or with cell death occurring preferentially in cells with a 4n DNA content (G2/M population).” left out

For the next series, the system named is MX1 tumor xenografts. The series is described as follows: MX1 tumor xenografts in nude mice. It counts as in vivo. To be noted: Sixty three mg/kg. On the procedure:
Dysidiolide inhibited the growth of MX1 tumor xenografts in nude mice. Sixty three mg/kg dysidiolide inhibited (A) tumor growth by 70% while (B) animal weight (and indication of overall toxicity) remained higher than 90% of controls.
Therapeutic Effects of Dysidiolide and Taxol in Nude Mice bearing MX-1. MX-1 cell 50 μg was implanted s.c. on day 0. Every other day i.v. treatments were given on day 3,5,7,9 and 11. The average tumor volume of control group on day 3, 7, 9, 11 and 13 were 62, 75, 113, 155 and 264 mm^3, respectively. Solvents: Dysidiolide [20-40 μl DMSO+100 μl (Cremophor: EtOH=1:1)+Saline] Taxol [Clinical use (Cremophor+EtOH=1:1)+Saline].

A further series deals with Cdc2. Kind of series: Cdc2 kinase activity on immunoprecipitates from treated MCF7 cells. The note with it: 50 μM, 24 hr. It counts as cell-based, human. As for the experimental part:
as §3
To further characterize the effects of dysidiolide on cell cycle control, experiments were conducted at the molecular level. As Cdc25s (A, B and C) are positive regulators of cyclin-dependent kinases (Cdk) (reviewed in Draetta and Eckstein, BBA 1332: M53-M63, 1997) inhibition of Cdc25 is expected to result in inhibition of Cdk activity. MCF7 cells were treated with 2 or 10 μM dysidiolide or with DMSO (controls) for 2 or 4 hr. Cell extracts were used to measure the steady-state levels of Cdc25 A and C, and Cdk activity. […] However, a decrease in the levels of Cdc25 C (but not on A) was clearly noticeable (FIG. 9B). In the next experiment MCF7 cells were treated for 24 hr with 50 μM dysidiolide or with DMSO (control) for 24 hr. […] On the other hand, at these more stringent conditions, inhibition of Cdk2, Cdk4 and Cdc2 protein kinase activities was observed (FIG. 10A and FIG. 10B).

Regarding `C=C(C)CCC[C@@]1(C)CCC[C@H]2C1=CC[C@H](C)[C@]2(C)C[C@H](O)C1=CC(=O)O[C@@H]1O` (racemic) [dysidiolide], in series [1], the “levels of p21, p27, cyclin D1 and cyclin E” value is “reduced levels”. Also, the “Cdk2 protein kinase activity” value in the series with Cdk2 (50 μM, 24 hr) is on record as “inhibition”. Further, in the series with Cdk2 (2 or 10 μM, 2 or 4 hr), the Cdk2 activity result was “no significant changes”. Also, in the series with TSU-Pr1 cells, the cell cycle arrest result is given as “induces G1 arrest”. Besides, the “levels of Cdc25 C” value in the series on Cdc25 C (50 μM, 24 hr) was “reduced”; in the series on Cdc25 C (2 or 10 μM, 2 or 4 hr), “decrease”. For the same compound, the cell cycle distribution result in series [2] (MCF7 breast cancer cell line) is “loss of the G2/M peak and accumulation of cells in G1”; in series [2] (PC3, DU145 and MCF7 cells at higher doses of drug, 24 hr), “loss of a G2/M (4 n peak)”. Moreover, the “cytotoxicity (loss of Trypan blue exclusion, sub-G1 fraction)” value in series [3] (2, 10 and 50 μM, 24 hr) is listed as “cytotoxic”. Further, the growth arrest entry in series [3] (2-50 μM, within 24 hours, four human cancer cell lines) was “growth arrest”. In the series with MX1 tumor xenografts, the “animal weight (indication of overall toxicity)” value was “higher than 90 % of controls”. This compound showed a tumor growth inhibition in the series on MX1 tumor xenografts of 70%. The “Cdc2 protein kinase activity” value in the series with Cdc2 was “inhibition”.
